Data set [1] has as its system RAF dimers in HCT-116 cells. Briefly: HCT-116 AlphaLISA SureFire pERK1/2 cellular assay (dimer). As to conditions: Homo sapiens, HCT-116; HCT116 cells, dimer, 1 hr; read-out: pERK HCT116 dimer (1 hr) plC50 (converted). The data set is classed as cell-based. The method in brief: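 HCT-116 (KRAS G13D) cells, 30,000/well, pretreated 1 h with 1 μM Encorafenib to induce RAF dimers, washed, then dosed 1 h at 37° C with compound (10-point, top 10 μM, 1/2 log steps) in growth medium. pERK1/2 (T202/Y204) measured by AlphaLISA SureFire; absolute IC50 versus DMSO control.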
A general note: In Alpha technology, singlet oxygen from a donor bead excites a nearby acceptor bead.

A short description of data set [2]: Microsomal stability assay, human liver microsomes (HLM). The data set is classed as in vitro ADME. As to conditions: 0.5 mg/mL protein, 1 μM substrate, 37° C. The procedure, abridged:
(§1)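 Substrate depletion: 1 μM compound incubated at 37° C. with cryopreserved mouse or human liver microsomes at 0.5 mg·mL^−1 protein. Timed aliquots quenched in ice-cold organic solvent and measured by LC-MS/MS; t1/2 and CLint derived from the slope of ln % remaining versus time.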
(In general: Liver microsomes are vesicles of endoplasmic reticulum, rich in cytochrome P450 enzymes.)

A short description of data set [3]: Microsomal stability assay, mouse liver microsomes (MLM). As to conditions: 0.5 mg/mL protein, 1 μM substrate, 37° C. The format is in vitro ADME. The method in brief: as §1
A short description of data set [4]: Plasma protein binding assay, human plasma (hPPB). As to conditions: 5 μM, equilibrium dialysis 4 hours at 37° C. The format is in vitro ADME. The method in brief:
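Equilibrium dialysis of 5 μM compound in previously frozen human or mouse plasma against phosphate buffer, 4 h at 37 °C. Both chambers quantified by LC-MS/MS; % free = (1−((PC−PF)/PC))×100.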
(In general: Equilibrium dialysis compares concentrations on both sides of a semipermeable membrane.)

This is an account of results in US12304912B2, “Fused bicyclic RAF inhibitors and methods for use thereof” (Jazz Pharmaceuticals Ireland Limited, priority 2020, dated 2025).

One may read the microsomal CLint as the rate of metabolic loss divided by the concentration. For the compound `Cn1ncc2ccc(-c3c[nH]c(C4COc5ccc(Oc6ccnc7c6CCC(=O)N7)cc5C4)n3)cc21` (stereo not drawn) [Compound 130, 5-[3-[4-(1-methylindazol-6-yl)-1H-imidazol-2-yl]chroman-6-yl]oxy-3,4-dihydro-1H-1,8-naphthyridin-2-one], the IC50 in data set [1] was 166 nM. Moreover, the microsomal CLint at 1 μM in data set [2] is 23.6 µL/min/mg; in data set [3] it was 23.5 µL/min/mg. The “hPPB (% free)” value in data set [4] was found to be 0.1 % free.

As for `CN1CCN(CC(=O)Nc2cc(Oc3ccc4c(c3)CC(c3nc(-c5ccccc5)c[nH]3)CO4)ccn2)CC1` (stereo not drawn) [Compound 146, 2-(4-methylpiperazin-1-yl)-N-[4-[3-(4-phenyl-1H-imidazol-2-yl)chroman-6-yl]oxy-2-pyridyl]acetamide], the IC50 in data set [1] is 170 nM. The microsomal CLint at 1 μM in data set [2] amounted to 33.4 µL/min/mg; in data set [3] it was 89.7 µL/min/mg. The “hPPB (% free)” value in data set [4] was 1.5 % free.

With `O=C(CN1CC(O)C1)Nc1cc(Oc2ccc3c(c2)CC(c2nc(-c4ccccc4)c[nH]2)CO3)ccn1` (stereo not drawn) [Compound 153], the IC50 in data set [1] was 126 nM. In addition, the microsomal CLint at 1 μM came out at 19.2 µL/min/mg in data set [2] and 92.9 µL/min/mg in data set [3]. The “hPPB (% free)” value in data set [4] is recorded as 0.39 % free.
